Counter-ions that a name gives are not always drawn.
Columns and labels:
[1] = Intrinsic dissolution rate (USP 23 section 711, apparatus 2, compressed pellets in water); format: physicochemical; conditions: 900 mL water, 37° C., 100 rpm, pellet with exposed surface area 0.5 cm^2, UV 220 nm
Protocol: The intrinsic dissolution rates of Form II and the crystalline polymorph of the present invention were determined as follows. Pellets of venlafaxine hydrochloride were prepared by compressing 100 mg of each material in a die (Wood's apparatus) at 1000 psi for 1 minute with a Carver press. […] The dissolution rate in 900 mL of water was determined by USP 23 (1995), section 711, page 1791 (Dissolution, apparatus 2), with a rotation speed of 100 rpm at 37° C. The dissolution media was circulated through a 1.0 cm path microflow cell at a flow rate of 10 mL/minute. Ultraviolet absorbance was recorded at 220 nm.

[2] = Thermogravimetric analysis (TGA); format: physicochemical; conditions: heated from 28 to 238° C. at 10° C./minute under nitrogen purge
Protocol: A sample of the venlafaxine hydrochloride crystalline polymorph of the present invention was heated from 28 to 238° C. at a scan rate of 10° C./minute in a Pyris I TGA, available from Perkin-Elmer of Shelton, Conn., under a nitrogen purge.

[3] = system: monoamine oxidase; conditions: cited from earlier work
[4] = system: muscaranic receptors; conditions: in vitro; cited from earlier work
[5] = system: histaminergic receptors; conditions: in vitro; cited from earlier work
[6] = system: adrenergic receptors; conditions: in vitro; cited from earlier work

SMILES: COc1ccc(C(CN(C)C)C2(O)CCCCC2)cc1 (stereo not drawn) [Form II, venlafaxine hydrochloride]
- intrinsic dissolution rate [1]: 24.7 mg/cm^2-minute

SMILES: COc1ccc(C(CN(C)C)C2(O)CCCCC2)cc1 (stereo not drawn) [venlafaxine hydrochloride]
- weight loss on heating (TGA) [2]: lost little weight until it was heated near the melting point

SMILES: COc1ccc(C(CN(C)C)C2(O)CCCCC2)cc1 (stereo not drawn) [venlafaxine, 1-[2-(dimethylamino)-1-(4-methoxyphenyl)ethyl]cyclohexanol]
- inhibitory activity on monoamine oxidase [3]: no inhibitory activity
- affinity for muscaranic receptors [4]: virtually no affinity
- affinity for histaminergic receptors [5]: virtually no affinity
- affinity for adrenergic receptors [6]: virtually no affinity

Source: US20060074131A1, “Novel crystalline polymorph of venlafaxine hydrochloride and methods for the preparation thereof” (Wyeth, priority 2001, published 2006)
